Data: paper PMC12814185, “Receptor-Mediated Shuttling of a D‑Amino Acid Peptide Achieves High Nanomolar Cytosolic Concentrations” (Journal of the American Chemical Society, 2025)
pEC50, pKd: −log10 of the molar value. Where two headings read alike, the source gives them in different places. Bridges are numbered along the chain shown (N, C = ends). Roman numbers before positions name the chains, in order. Triazole bridges read from a SMILES are 1,4-linked. Where no end group is shown, it is not given here. Side-chain parts run from the residue outwards. [ ]: non-standard residue; d: D form. The star is where a group is joined. X1 = CN1C(=CC=CC=CC2=[N+](CCCCCC(=O)*)c3ccc(S(=O)(=O)[O-])cc3C2(C)C)C(C)(C)c2cc(S(=O)(=O)O)ccc21; Lys(N3) = [N-]=[N+]=NCCCC[C@H](N)C(=O)O; Cit = NC(=O)NCCC[C@H](N)C(=O)O; d(hCys) = N[C@H](CCS)C(=O)O; PEG3 = NCCOCCOCCOCCC(=O)O; Pra = C#CC[C@H](N)C(=O)O

What was measured:
[1] = system: HEK293_CMKLR1-eYFP, HMEC-1, MDA-MB-231 and THP-1 cells; assay: Quantification of total cellular peptide uptake in cell lysate; format: cell-based; conditions: 1 µM peptide, 72 h, fluorescence in lysate, all cell lines; performed thrice
Protocol: page 7: Quantification of total cellular peptide uptake of different cell lines MDA-MB-231 cells and stably transfected HEK293_CMKLR1-eYFP cells were seeded at 165,000 cells per well and HMEC-1 cells at 55,000 cells per well into poly-ᴅ-lysine coated 12-well plates in their respective cell culture medium. […] the cells and incubated for 72 h. Cells were then washed with PBS and detached with trypsin/EDTA. […] Suspended cells were washed thrice with Fluorobrite DMEMTM and collected by centrifugation at 500 g for 5 min after each step. Finally, cells were resuspended in […] Fluorobrite DMEMTM and cell density was determined with an automated cell counter (Cell Drop, DeNovix). Cell suspensions were then lysed by ultrasonic homogenization (U[…], Hielscher) for 2 × 10 s on ice to prevent self-quenching of Cy5 due to high local concentrations in vesicles. […] Quantification of receptor-mediated uptake in CMKLR1-expressing cell lines. (A) Cell-surface enzyme-linked immunosorbent assay (ELISA) for the quantification of CMKLR1 expression of different cell lines. […] For quantification, cells were detached, counted, lysed by ultrasonic homogenization, and fluorescence was measured in the lysate. Total peptide uptake per cell was calculated from a dilution series of Cy5-labeled peptide with known concentration. […]

[2] = target: T1, recombinant human GST-MDM2 (Homo sapiens, UniProt Q00987); assay: Fluorescence polarization binding of Cy5-labeled peptides to MDM2; conditions: 20 nM Cy5-labeled peptide, FP buffer pH 7.4, 30 min room temperature; performed twice in technical triplicates
T1 construct: purchased R&D Systems
Protocol: (B) Fluorescence polarization measurement of 20 nM Cy5-labeled peptides binding to recombinant human GST-MDM2.
20 nM of Cy5-labeled peptides were added to dilutions of human MDM2 (Recombinant Human GST -
MDM2/HDM2, R&D Systems) in FP buffer (50 mM tris(hydroxymethyl)aminomethane (Tris, Carl Roth),
150 mM sodium chloride (Sigma), 1 mM EDTA (Sigma), 0.01% (v/v) Tween20 (Sigma), pH 7.4) and
incubated for 30 min at room temperature. Fluorescence polarization was then measured in a Tecan
Spark plate reader (λex = 640 nm, λem = 670 nm). Measurements were performed twice in technical
triplicates. Data was then fit with Prism 10 (GraphPad) using non-linear regression with the following
solution to the quadratic binding equation 1 to obtain Kd:
𝐹𝑃 = 𝐹𝑃 + (𝐹𝑃 − 𝐹𝑃 ) ∗ 𝑐 + 𝑐 + 𝐾 − 𝑝𝑒𝑝𝑡𝑖𝑑𝑒 𝑀𝐷𝑀2 𝑑 𝑝𝑒𝑝𝑡𝑖𝑑𝑒 𝑀𝐷𝑀2

CMKLR1 = target: T2, CMKLR1 (Homo sapiens, UniProt Q99788); assay: Ca2+ flux assay in COS-7_CMKLR1-eYFP_Δ6Gαqi4myr cells; format: cell-based; conditions: maximum signal over baseline normalized to peptide 1, at least two independent experiments in duplicate
T2 construct: expressed in transfected cells; host or cells: COS-7 (stably transfected, CMKLR1-eYFP + Δ6Gαqi4myr)
T2 sequence (Q99788 1-373): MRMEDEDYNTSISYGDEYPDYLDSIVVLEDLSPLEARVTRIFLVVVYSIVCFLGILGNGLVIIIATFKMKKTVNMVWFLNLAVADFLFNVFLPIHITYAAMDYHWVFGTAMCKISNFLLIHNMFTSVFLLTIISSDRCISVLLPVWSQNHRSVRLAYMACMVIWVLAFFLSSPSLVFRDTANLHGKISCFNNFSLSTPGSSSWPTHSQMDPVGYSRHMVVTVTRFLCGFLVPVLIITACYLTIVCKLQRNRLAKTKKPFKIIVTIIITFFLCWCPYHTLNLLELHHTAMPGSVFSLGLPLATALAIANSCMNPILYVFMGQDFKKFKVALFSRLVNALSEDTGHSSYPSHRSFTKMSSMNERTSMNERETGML
Protocol: (C) Activity of the cyclic chemerin-9 (cC9) derivatives at CMKLR1 tested in a Ca^2+ flux assay. Data points represent the mean ± SEM of at least two independent experiments performed in duplicate.
Calcium flux assay was performed with cells expressing CMKLR1 and the chimeric G protein Δ6Gαqi4myr.
The stably transfected COS-7_CMKLR1-eYFP_ Δ6Gαqi4myr cells were seeded at 25,000 cells per well into poly-ᴅ-lysine-coated 96-well plates (black µCLEAR, Greiner). The next day, cells were incubated with 2.3 µM Fluo-2-AM (Abcam) and 0.06% (v/v) Pluronic-F127 (Sigma) in assay buffer (2.5 mM probenecid (Sigma), 20 mM 4-(2-hydroxyethyl)-1-piperazineethanesulfonic acid (HEPES, Sigma) in Hanks' Balanced Salt Solution (HBSS, Biowest), pH 7.5) for 1 h. This solution was replaced by assay buffer, and basal Ca2+ signal (λex = 485 nm, λem = 525 nm) was measured for 20 s with a Flexstation 3 plate reader (Molecular Devices). Peptide dilutions were added, and the Ca2+ response was measured for 40 s. The maximum signal over baseline was calculated and normalized to peptide 1 (N3-cC9). Non-linear regression was performed using Prism 10 (GraphPad). Experiments were performed in technical duplicates and at least

T1 sequence (Q00987 whole entry): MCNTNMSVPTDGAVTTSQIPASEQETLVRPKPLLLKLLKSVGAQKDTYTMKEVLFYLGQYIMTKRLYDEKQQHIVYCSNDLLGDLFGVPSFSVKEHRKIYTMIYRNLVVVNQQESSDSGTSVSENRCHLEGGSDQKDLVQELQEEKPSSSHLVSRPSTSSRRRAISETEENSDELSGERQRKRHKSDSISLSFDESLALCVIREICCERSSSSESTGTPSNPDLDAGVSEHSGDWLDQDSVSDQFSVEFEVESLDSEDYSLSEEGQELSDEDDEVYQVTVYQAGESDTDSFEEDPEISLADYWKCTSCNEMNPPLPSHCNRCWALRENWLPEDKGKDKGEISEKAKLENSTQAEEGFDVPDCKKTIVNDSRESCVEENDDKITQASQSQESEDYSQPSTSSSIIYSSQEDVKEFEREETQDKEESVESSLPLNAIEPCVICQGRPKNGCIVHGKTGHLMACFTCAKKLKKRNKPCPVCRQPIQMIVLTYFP

Question: “I: GSVSHHHHHHGGHHHH[PEG3][dK]([PEG3-X1])[dD][dW][dW][dP][dL][dA][dF][dE][dA][dL][dL][dR]GEV[Cit][PEG3][Pra]-NH2 / II: Ac-[Lys(N3)]YFP[d(hCys)]QFAFC-OH (triazole I:36-II:1; disulfide II:5-II:10) [3Cy]” was tested. Which “total peptide uptake per cell” value [1] did it give?
Answer: uptake slightly higher than that of 2Cy

Question: What about the pKd [2] of the same substance?
Answer: 7.05

Question: And the pEC50 (CMKLR1; read-out: EC50)?
Answer: 6.66

Question: And the EC50 (CMKLR1; read-out: pEC50 ± SEM (converted))?
Answer: 219 nM
